Experimental data as given in patent publication US20060183189A1, “Regulatable gene expression in mammalian cells and mammals” (priority 2003, published 2006).

Columns and labels:
AlkS = target: T1, AlkS (Ectopseudomonas oleovorans, UniProt P17051); assay: AlkS-based regulatable SEAP expression in CHO-K1 cells; assay type: cell-based, Pseudomonas putida (oleovorans); settings: CHO-K1 cells transfected with AlkS and PSV40 promoter with 8 OP repeats; upon addition of regulating compound
T1 construct: expressed in transfected cells; host or cells: CHO-K1
T1 sequence (P17051 whole entry): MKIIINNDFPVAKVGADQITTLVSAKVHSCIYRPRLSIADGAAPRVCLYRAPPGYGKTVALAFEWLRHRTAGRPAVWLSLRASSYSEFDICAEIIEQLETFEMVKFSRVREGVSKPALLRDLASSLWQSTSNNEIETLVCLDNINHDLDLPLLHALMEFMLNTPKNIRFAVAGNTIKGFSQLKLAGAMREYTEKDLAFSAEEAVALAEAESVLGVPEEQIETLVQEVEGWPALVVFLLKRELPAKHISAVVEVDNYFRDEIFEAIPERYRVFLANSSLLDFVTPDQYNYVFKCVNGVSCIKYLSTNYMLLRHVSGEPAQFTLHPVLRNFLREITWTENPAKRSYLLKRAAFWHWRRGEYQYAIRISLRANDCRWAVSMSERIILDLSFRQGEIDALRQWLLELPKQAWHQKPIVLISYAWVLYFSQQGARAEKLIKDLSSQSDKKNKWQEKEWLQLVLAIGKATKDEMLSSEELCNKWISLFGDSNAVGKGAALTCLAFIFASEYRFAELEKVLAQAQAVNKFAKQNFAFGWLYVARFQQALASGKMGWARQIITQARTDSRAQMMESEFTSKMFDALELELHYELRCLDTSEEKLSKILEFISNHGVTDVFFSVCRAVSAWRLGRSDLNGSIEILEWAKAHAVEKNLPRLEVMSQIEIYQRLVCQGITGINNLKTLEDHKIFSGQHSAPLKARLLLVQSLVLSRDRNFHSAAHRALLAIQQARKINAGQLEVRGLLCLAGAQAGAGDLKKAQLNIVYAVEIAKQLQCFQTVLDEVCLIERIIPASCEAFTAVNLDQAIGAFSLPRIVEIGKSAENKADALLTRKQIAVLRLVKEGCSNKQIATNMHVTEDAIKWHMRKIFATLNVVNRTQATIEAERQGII
Source text: A regulatable expression system responsive to liquid or gaseous inducers based on bacterial elements is constructed by PCR-cloning the Pseudomonas putida (oleovorans)-derived RTF AlkS (Smiths et al., 2001. Plasmid 46, 16-24) into the mammalian expression vector pEF6V5-His TOPO (Invitrogen, Carlsbad, Calif.). The responsive promoter is constructed by cloning 8 repeats of the AlkS-specific OP site downstream of the simian virus 40 promoter PSV40 followed by a reporter gene, the secreted alkaline phosphatase SEAP.
Transfection of the plasmids encoding AlkS and the responsive promoter controlling SEAP expression in CHO-K1 cells results in SEAP expression levels typical for PSV40-driven constitutive expression.

AlcR = target: T2, AlcR (Emericella nidulans, UniProt P21228); assay: Gas-phase controlled SEAP expression of stable CHO-K1-derived cell line in a bioreactor; assay type: cell-based, Aspergillus nidulans; settings: 2.5 L bioreactor, gassing in air containing 340 ppm acetaldehyde, then 40 ppm; shut down by sparging with pure air
T2 construct: excising alcR (EcoRI/SalI) from an alcR cDNA containing vector; expressed in transfected cells; host or cells: CHO-K1
T2 sequence (P21228 whole entry): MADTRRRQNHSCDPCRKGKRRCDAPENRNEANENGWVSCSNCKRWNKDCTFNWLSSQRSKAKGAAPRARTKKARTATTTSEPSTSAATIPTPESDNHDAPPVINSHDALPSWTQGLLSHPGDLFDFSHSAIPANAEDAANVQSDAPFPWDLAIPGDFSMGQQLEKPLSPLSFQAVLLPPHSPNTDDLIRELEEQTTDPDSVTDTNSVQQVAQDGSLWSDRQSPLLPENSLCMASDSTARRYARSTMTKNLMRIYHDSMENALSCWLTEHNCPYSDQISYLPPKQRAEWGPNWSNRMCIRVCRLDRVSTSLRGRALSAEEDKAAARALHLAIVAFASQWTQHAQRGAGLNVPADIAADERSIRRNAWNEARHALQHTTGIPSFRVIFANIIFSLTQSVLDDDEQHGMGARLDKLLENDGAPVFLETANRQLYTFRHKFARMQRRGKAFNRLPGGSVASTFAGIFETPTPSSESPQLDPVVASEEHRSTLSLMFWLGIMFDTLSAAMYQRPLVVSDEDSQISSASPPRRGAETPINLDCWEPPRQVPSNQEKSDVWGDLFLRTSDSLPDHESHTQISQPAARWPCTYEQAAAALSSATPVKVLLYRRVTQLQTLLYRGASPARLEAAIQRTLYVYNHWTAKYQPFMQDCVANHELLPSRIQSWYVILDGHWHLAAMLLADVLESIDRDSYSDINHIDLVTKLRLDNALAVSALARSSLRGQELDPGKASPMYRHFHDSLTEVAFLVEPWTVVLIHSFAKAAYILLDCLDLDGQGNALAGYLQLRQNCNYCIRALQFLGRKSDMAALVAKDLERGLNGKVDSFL
Source text: A stable CHO-K1-derivative engineered for acetaldehyde-inducible SEAP expression is cultivated in a bioreactor. […] The specific SEAP productivities (μU/10^6 cells/h) are indicated over time (h).
A CHO-K1-derived cell line is constructed for gas-inducible expression of a secreted alkaline phosphatase (SEAP) by stable transfection/transduction with plasmid pWW192 (see Example 1) and a pWW506-based viral particle (see Example 4).

Structure (SMILES): O=C(C1CC1)C1CC1 [dicyclopropylketone]
- SEAP expression (AlkS): decreases in a dose-dependent manner

Structure (SMILES): CCOC(C)=O [ethyl acetate]
- SEAP expression (AlkS): decreases in a dose-dependent manner

Structure (SMILES): CC=O [acetaldehyde]
- SEAP expression (AlcR): induced

Structure (SMILES): CCOCC [ethyl ether]
- SEAP expression (AlkS): decreases in a dose-dependent manner
